Reference: paper PMC11087268, “A folate inhibitor exploits metabolic differences in Pseudomonas aeruginosa for narrow-spectrum targeting” (Nature Microbiology, 2024)

Assays:
[1] = tested on: Pseudomonas aeruginosa PA14; assay: MIC against P. aeruginosa PA14 in LB broth; type: cell-based
Procedure: Overnight cultures were diluted 1:150 in LB broth and added to a 96-well plate. Antibiotics were serially diluted 1:2 and added to columns of the 96-well plate and grown at 37 °C with continuous shaking. Cell growth was measured using optical density at 600 nm (OD600). MIC assays were performed in either BioTek Synergy HT or Tecan InfiniteM200 Pro microplate readers.

PA14 = assay: Checkerboard assay fluorofolin / sulfamethoxazole; type: cell-based, Pseudomonas aeruginosa; conditions: for FIC index: PA14, SMX 0.000 ug/mL
Procedure: Cells were seeded in a similar manner as described above for MIC calculations. […] Fractional inhibitory concentrations (FICs) were calculated as [[…], where [fluorofolin] and [SMX] are the concentrations of compounds in a given well, which were divided by the concentration of drug at the MIC for each compound.

Nc1nc(N)c2c(ccc3c2ccn3Cc2ccnc(F)c2)n1 [fluorofolin]
MIC ([1]; Pseudomonas aeruginosa, PA14): 3.1 µg/mL | MIC ([1]; Pseudomonas aeruginosa, PA14, 16 h): 3.12 µg/mL | MIC ([1]; Wildtype PA14, control for each drug stock): 3.1 µg/mL | FIC index (PA14; Fluorofolin 3.125 ug/mL): 1 | FIC index (PA14; Fluorofolin 6.25 ug/mL): 2 | FIC index (PA14; Fluorofolin 12.5 ug/mL): 4 | FIC index (PA14; Fluorofolin 25 ug/mL): 8 | MIC (PA14; Pseudomonas aeruginosa, PA14, read-out: MIC of fluorofolin in the presence of SMX): 0.4 µg/mL
